Laboratory results: ChEMBL document CHEMBL4251578, “Design, synthesis and biological evaluation of novel 2-aminobenzamides containing dithiocarbamate moiety as histone deacetylase inhibitors and potent antitumor agents” (Eur J Med Chem, 2018)

Columns and labels:
SMMC-7721 [1] = assay: Induction of apoptosis in human SMMC7721 cells assessed as late apoptotic cells at 4 umol/L after 72 hrs by Alexa Fluor 488 Annexin/propidium iodide staining-based flow cytometric analysis (reference value: 0.29%); type: functional
MGC-803 [2] = assay: Antiproliferative activity against human MGC803 cells at 8 uM after 72 hrs by CCK-8 assay relative to control; type: functional; settings: MGC-803, 72 h
SMMC-7721 [3] = assay: Induction of apoptosis in human SMMC7721 cells assessed as late apoptotic cells at 0.125 umol/L after 72 hrs by Alexa Fluor 488 Annexin/propidium iodide staining-based flow cytometric analysis (reference value: 0.29%); type: functional
Histone deacetylase 2 = Histone deacetylase 2 (Homo sapiens, UniProt Q92769); assay: Inhibition of human recombinant HDAC2 using Fluor de Lys-Green as substrate preincubated for 5 mins followed by substrate addition and measured after 1 hr by fluorescence assay
SMMC-7721 [4] = assay: Induction of apoptosis in human SMMC7721 cells assessed as necrotic cells at 1 umol/L after 72 hrs by Alexa Fluor 488 Annexin/propidium iodide staining-based flow cytometric analysis (reference value: 2.48%); type: functional
SMMC-7721 [5] = assay: Induction of apoptosis in human SMMC7721 cells assessed as necrotic cells at 0.125 umol/L after 72 hrs by Alexa Fluor 488 Annexin/propidium iodide staining-based flow cytometric analysis (reference value: 2.48%); type: functional
SMMC-7721 [6] = assay: Induction of apoptosis in human SMMC7721 cells assessed as early apoptotic cells at 4 umol/L after 72 hrs by Alexa Fluor 488 Annexin/propidium iodide staining-based flow cytometric analysis (reference value: 0.09%); type: functional
HeLa = assay: Antiproliferative activity against human HeLa cells at 8 uM after 72 hrs by CCK-8 assay relative to control; type: functional
SMMC-7721 [7] = assay: Induction of apoptosis in human SMMC7721 cells assessed as necrotic cells at 4 umol/L after 72 hrs by Alexa Fluor 488 Annexin/propidium iodide staining-based flow cytometric analysis (reference value: 2.48%); type: functional
SMMC-7721 [8] = assay: Induction of apoptosis in human SMMC7721 cells assessed as early apoptotic cells at 0.125 umol/L after 72 hrs by Alexa Fluor 488 Annexin/propidium iodide staining-based flow cytometric analysis (reference value: 0.09%); type: functional
SMMC-7721 [9] = assay: Cell cycle arrest in human SMMC7721 cells assessed as accumulation of cells at S phase at 4 umol/L after 72 hrs by propidium iodide staining-based flow cytometric analysis (reference value: 5.21%); type: functional
SMMC-7721 [10] = assay: Cell cycle arrest in human SMMC7721 cells assessed as accumulation of cells at S phase at 1 umol/L after 72 hrs by propidium iodide staining-based flow cytometric analysis (reference value: 5.21%); type: functional
SMMC-7721 [11] = assay: Cell cycle arrest in human SMMC7721 cells assessed as accumulation of cells at G0/G1 phase at 1 umol/L after 72 hrs by propidium iodide staining-based flow cytometric analysis (reference value: 80.65%); type: functional
MGC-803 [12] = assay: Antiproliferative activity against human MGC803 cells after 72 hrs by CCK-8 assay; type: functional, cell-based; settings: for IC50: MGC-803, 72 h
SMMC-7721 [13] = assay: Cell cycle arrest in human SMMC7721 cells assessed as accumulation of cells at G0/G1 phase at 4 umol/L after 72 hrs by propidium iodide staining-based flow cytometric analysis (reference value: 80.65%); type: functional
SMMC-7721 [14] = assay: Induction of apoptosis in human SMMC7721 cells assessed as viable cells at 1 umol/L after 72 hrs by Alexa Fluor 488 Annexin/propidium iodide staining-based flow cytometric analysis (reference value: 97.14%); type: functional; settings: SMMC-7721, 72 h, read-out: Activity
SMMC-7721 [15] = assay: Cell cycle arrest in human SMMC7721 cells assessed as accumulation of cells at G2/M phase at 4 umol/L after 72 hrs by propidium iodide staining-based flow cytometric analysis (reference value: 14.14%); type: functional
SMMC-7721 [16] = assay: Induction of apoptosis in human SMMC7721 cells assessed as viable cells at 0.125 umol/L after 72 hrs by Alexa Fluor 488 Annexin/propidium iodide staining-based flow cytometric analysis (reference value: 97.14%); type: functional; settings: SMMC-7721, 72 h, read-out: Activity
SMMC-7721 [17] = assay: Antiproliferative activity against human SMMC7721 cells after 72 hrs by CCK-8 assay; type: functional, cell-based; settings: for IC50: SMMC-7721, 72 h
SMMC-7721 [18] = assay: Induction of apoptosis in human SMMC7721 cells assessed as viable cells at 4 umol/L after 72 hrs by Alexa Fluor 488 Annexin/propidium iodide staining-based flow cytometric analysis (reference value: 97.14%); type: functional; settings: SMMC-7721, 72 h, read-out: Activity
[19] = biological target: T1, Protein deacetylase HDAC6 (Homo sapiens, UniProt Q9UBN7); assay: Inhibition of human recombinant HDAC6 using Fluor de Lys-Green as substrate preincubated for 5 mins followed by substrate addition and measured after 1 hr by fluorescence assay
T1 sequence (Q9UBN7 whole entry): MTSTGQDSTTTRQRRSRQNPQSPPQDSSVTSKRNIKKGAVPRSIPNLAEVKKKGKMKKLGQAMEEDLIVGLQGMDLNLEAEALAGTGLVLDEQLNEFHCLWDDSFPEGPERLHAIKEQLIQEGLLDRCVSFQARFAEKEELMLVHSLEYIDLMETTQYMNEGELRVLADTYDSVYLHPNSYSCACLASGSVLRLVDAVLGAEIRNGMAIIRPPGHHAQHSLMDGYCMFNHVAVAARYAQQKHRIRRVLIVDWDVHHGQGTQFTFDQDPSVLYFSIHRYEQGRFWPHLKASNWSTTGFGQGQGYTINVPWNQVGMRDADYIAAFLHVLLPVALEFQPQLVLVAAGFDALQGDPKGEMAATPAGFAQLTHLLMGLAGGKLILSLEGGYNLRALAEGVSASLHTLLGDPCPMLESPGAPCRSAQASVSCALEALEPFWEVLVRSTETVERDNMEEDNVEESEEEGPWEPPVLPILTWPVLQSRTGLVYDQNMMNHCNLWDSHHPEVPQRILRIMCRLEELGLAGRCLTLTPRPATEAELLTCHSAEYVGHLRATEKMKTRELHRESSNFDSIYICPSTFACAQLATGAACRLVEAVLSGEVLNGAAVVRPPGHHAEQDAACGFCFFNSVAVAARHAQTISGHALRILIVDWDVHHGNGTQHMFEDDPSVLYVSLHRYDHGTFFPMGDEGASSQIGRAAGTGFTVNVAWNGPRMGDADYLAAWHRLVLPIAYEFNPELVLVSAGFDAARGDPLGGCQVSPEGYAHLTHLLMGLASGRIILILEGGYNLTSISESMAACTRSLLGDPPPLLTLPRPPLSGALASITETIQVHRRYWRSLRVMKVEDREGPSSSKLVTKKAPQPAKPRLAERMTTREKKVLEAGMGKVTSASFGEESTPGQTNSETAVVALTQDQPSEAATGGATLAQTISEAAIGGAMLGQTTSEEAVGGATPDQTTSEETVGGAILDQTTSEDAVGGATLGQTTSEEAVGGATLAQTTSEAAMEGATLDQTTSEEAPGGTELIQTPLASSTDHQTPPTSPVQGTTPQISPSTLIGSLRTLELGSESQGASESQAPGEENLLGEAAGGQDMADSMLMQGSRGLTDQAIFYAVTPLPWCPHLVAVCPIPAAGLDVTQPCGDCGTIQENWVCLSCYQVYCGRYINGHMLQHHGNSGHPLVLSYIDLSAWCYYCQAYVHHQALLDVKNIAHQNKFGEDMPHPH

Histone deacetylase 2, sequence (Q92769 whole entry): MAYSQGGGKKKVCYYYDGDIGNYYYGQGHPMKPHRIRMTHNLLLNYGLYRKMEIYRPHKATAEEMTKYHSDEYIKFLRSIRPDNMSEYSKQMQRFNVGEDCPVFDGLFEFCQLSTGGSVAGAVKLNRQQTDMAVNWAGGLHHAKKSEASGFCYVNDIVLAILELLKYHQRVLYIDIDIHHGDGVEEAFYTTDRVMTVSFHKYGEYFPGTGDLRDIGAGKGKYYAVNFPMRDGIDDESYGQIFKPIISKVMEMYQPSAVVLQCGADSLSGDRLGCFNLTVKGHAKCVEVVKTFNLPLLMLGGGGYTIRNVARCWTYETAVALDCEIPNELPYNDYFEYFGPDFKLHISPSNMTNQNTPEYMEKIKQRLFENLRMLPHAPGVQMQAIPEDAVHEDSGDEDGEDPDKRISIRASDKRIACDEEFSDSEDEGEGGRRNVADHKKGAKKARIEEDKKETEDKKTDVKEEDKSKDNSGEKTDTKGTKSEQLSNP

SMILES	Activity (SMMC-7721 [1])	inhibition at 8 µM (MGC-803 [2])	Activity (SMMC-7721 [3])	IC50 (Histone deacetylase 2)	Activity (SMMC-7721 [4])	Activity (SMMC-7721 [5])	Activity (SMMC-7721 [6])	inhibition at 8 µM (HeLa)	Activity (SMMC-7721 [7])	Activity (SMMC-7721 [8])	Activity (SMMC-7721 [9])	Activity (SMMC-7721 [10])	Activity (SMMC-7721 [11])	IC50 (MGC-803 [12])	Activity (SMMC-7721 [13])	viability at 1 µM (SMMC-7721 [14])	Activity (SMMC-7721 [15])	viability at 0.125 µM (SMMC-7721 [16])	IC50 (SMMC-7721 [17])	viability at 4 µM (SMMC-7721 [18])	also measured
CCN(Cc1ccncc1)C(=S)SCc1ccc(C(=O)Nc2ccccc2N)cc1	31.88%	85.2%	11.22%	900 nM	13.18%	12.93%	23.81%	77.7%	1.27%	2.75%	9.19%	7.45%	71.44%	1370 nM	41.87%	54.7%	48.94%	73.1%	1210 nM	43%	IC50 [19]: > 40000 nM
Nc1ccccc1NC(=O)c1ccc(CSC(=S)N2CCc3ccccc3C2)cc1	26.7%	87.5%	10.62%	3230 nM	2.9%	3.49%	25.36%	76.3%	1.94%	14.71%	7.63%	9.25%	67.59%	940 nM	64.06%	57.3%	28.31%	71.2%	1200 nM	46%	IC50 [19]: > 40000 nM
Nc1ccccc1NC(=O)c1ccc(CSC(=S)N2CCN(c3ccncc3)CC2)cc1	52.78%	87.1%	12.55%	470 nM	5.01%	11.27%	19.79%	77.4%	3.17%	3.66%	2.76%	7.04%	79.27%	1580 nM	85.19%	66.7%	12.05%	72.5%	1340 nM	24.3%	Activity (MGC-803 [12]): Dose-dependent effect; Activity (SMMC-7721 [17]): Dose-dependent effect; IC50 [19]: > 40000 nM
